Measured values published in patent US20100190982A1, “PROCESS FOR THE PREPARATION OF LAMIVUDINE FORM I” (priority 2007, published 2010).
Where two headings read alike, the source gives them in different places.

Columns and labels:
[1] = as stated in U.S. Pat. No. 5,905,082, cited from earlier work
[2] = Stability testing at 60° C.; format: physicochemical; conditions: two months
[3] = Drying of Form I crystals at 80° C. (under reduced pressure), polymorphic change; format: physicochemical; conditions: for conversion of Form I to Form II on drying: drying at 80° C. (under reduced pressure)
Method: (§1) Therefore our endeavour was to prepare Lamivudine polymorph Form I, which is storage stable and remains unchanged during preparation of solid doses form. […] (under reduced pressure). Data has been generated up to 72 h drying at 80° C.
In the present invention, the Lamivudine polymorphic Form I obtained is 100% pure.

[4] = Grinding / milling of Form I crystals, polymorphic change; format: physicochemical
Method: as §1

[5] = Storage of Form I crystals, polymorphic change; format: physicochemical
Method: as §1

Nc1ccn([C@@H]2CS[C@H](CO)O2)c(=O)n1 [Form II, Lamivudine]
relative stability of polymorphic form [1]: more stable polymorphic form

Nc1ccn([C@@H]2CS[C@H](CO)O2)c(=O)n1 [Lamivudine Form I crystals prepared by the process of instan]
chemical degradation in stability testing [2]: neither chemical degradation
polymorphic change in stability testing [2]: nor polymorphic change was observed
conversion of Form I to Form II on drying [3]: do not convert to Form II
conversion of Form I to Form II on drying ([3]; listed as Lamivudine polymorphic Form I): does not change into other polymorphic form
polymorphic change on drying ([3]; up to 72 h drying at 80° C. (under reduced pressure)): no polymorphic change has been observed
change in polymorphic form on grinding ([4]; grinded neat for 5-15 min at 20-30° C.): no change in polymorphic form has been observed

Nc1ccn([C@@H]2CS[C@H](CO)O2)c(=O)n1 [Lamivudine polymorphic Form I prepared by crystallisation fr]
conversion to Form II on storage [5]: partially converted into Form II
relative stability of polymorphic form ([1]; listed as Form I crystals): less stable
conversion of Form I to Form II in pharmaceutical unit operations ([1]; milling/grinding): may cause conversion of Form I to Form II
conversion of Form I to Form II on drying [3]: partially converted into Form II
conversion to Form II when milled/grinded ([4]; milled/grinded): partial conversion to Form II was observed
